These are literature values, as cited in patent publication US8486426B2, “Methods and compositions for treatment of dermal conditions” (Kimberly-Clark Worldwide, Inc., priority 2002, dated 2013).

One data set concerns onychomycosis. The note with it: for Clinical cure rate: total dystrophic onychomycosis (TDO), oral drug.
For data set [1] the following is noted: for deaths among liver failure cases: reported by/through 2001.
The test system of data set [2] is dermatophytes, yeast and molds that typically cause onychomycosis.
For data set [3] the following is noted: in vivo.

On to `CCC(C)(C)c1ccc(CC(C)CN2C[C@@H](C)O[C@@H](C)C2)cc1` (some centres unmarked) [LOCERYL, amorolfine], for which, in the data set on onychomycosis (mild onychomycosis with no matrix involvement, topical 5% solution), the “effective in share of the cases” value was “about 40%”.
For `CCC(C)n1ncn(-c2ccc(N3CCN(c4ccc(OCC5COC(Cn6cncn6)(c6ccc(Cl)cc6Cl)O5)cc4)CC3)cc2)c1=O` (centres unmarked) [SPORANOX, itraconazol], the “deaths among pulmonary edema cases” value in data set [1] (as of 2001) is on record as 13 deaths. In data set [1] (in vivo), the “cases of liver failure reported” value was 24 cases and the “cases of pulmonary edema (probable association)” value is 58 cases. The “deaths among liver failure cases” value in data set [1] is 11 deaths.
As to `Cc1cc(C2CCCCC2)n(O)c(=O)c1` [PENLAC, ciclopirox olamine], the cure rate in the data set on onychomycosis (mild to moderate DLSO, average 40% of nail involved, no matrix infection, topical) is listed as 7%. The “in vitro action on fungi” value in data set [2] is on record as “fungicidal”.
As for `OC(Cn1cncn1)(Cn1cncn1)c1ccc(F)cc1F` [fluconazole], in the data set on onychomycosis, the Clinical cure rate result is recorded as “about 38%”.
Turning to `CN(C/C=C/C#CC(C)(C)C)Cc1cccc2ccccc12` [TERBINAFINE, terbinafine], the Clinical cure rate in the data set on onychomycosis is 37%. Further, in data set [1] (in vivo), the “cases of liver failure reported” value is given as 16 cases and the liver transplants reported is listed as 2 liver transplants. In addition, in data set [1], the “deaths among liver failure cases” value was 11 deaths. In addition, in data set [3], the persistence after treatment result is “several months” and the “time at which detectable in the nail bed” value is “one week”.
